In general, logP refers to the decadic logarithm of the partition coefficient of the neutral form, usually between octanol and water. A lower logP goes with lower lipophilicity. As a reminder, the logD is the decadic logarithm of the distribution of all forms, ionised or not, between an organic phase and buffer at a given pH. The low end stands for a more hydrophilic compound, the high end for a more lipophilic compound.

Settings in one data set: not given
On to `CC(=O)OC(C)(C)C`, for which the logP stood at 1.76. Consider `NC(=O)Cc1cccs1`, for which the logP was 0.33. In turn, `CCOC(=O)C(=O)Nc1ccccc1` came in with a logP of 1.48. Same read-out and setting: for `CNC=O` the value was -0.97; for `CN1C(=O)CCC1=O`, -0.95.

`O=C(O)c1ccc2c(c1)OCCOCCOCCOCCOCCO2` returned a logP of -0.28. Consider `Cc1cc2ccccc2cn1`, for which the logP worked out at 2.68. For the molecule `C1=c2ccc3cccc4ccc(c2c43)CC1`, the logP was 4.92. Still for that read-out and setting: for `O=[N+]([O-])c1cccc(SSc2cccc([N+](=O)[O-])c2)c1` the value was 4.06; for `NC(=O)OCCc1cccc2c1C(=O)C(Br)=C(N1CC1)C2=O`, 0.68.

`Cc1cscn1` displayed a logP of 0.97. `Cc1ccc(/C=N/O)cc1` yielded a logP of 2.4. For the molecule `CN(C)C(=O)C12CC3CC(CC(C3)C1)C2`, the logP is 2.55. Same read-out and setting: to `CC(=O)OC(C)c1ccccc1` (configuration not stated) belongs 2.3; to `Cc1ccc2[nH]c(N)nc2c1`, 1.11; to `c1ccc(-c2ccncn2)cc1`, 1.92. `CNC(=N[N+](=O)[O-])NCCSCc1nc[nH]c1C`: the logP came out at 0.13. Molecule `COC(=O)C1=CCCN(C)C1` returned a logP of 0.35. Take `CC(C)Nc1nc(N)nc(SC(F)F)n1`: the logP is 2.68. The molecule `N#CC(CCc1ccc(Cl)cc1)(Cn1cncn1)c1ccccc1` (configuration not stated) registered a logP of 3.23. On the same count and under the same terms, for `CCC(C)Cl` (configuration not stated) the value was 2.33.

For the molecule `CCOC(=O)N(C)C`, the logP was 0.89.

`CS(=O)(=O)ON1C(=O)c2ccc([N+](=O)[O-])cc2C1=O` registered a logP of 1.71. The same measure, in the same setting: to `c1ccc(-c2csnn2)cc1` belongs 2.42. Take `COC(=O)CCCCCC(=O)OC`: the logP is 1.38.

`BrCCCBr` gave a logP of 2.37. `c1ccc(OP2OCCO2)cc1` showed a logP of 1.42. As for `c1ccc(N2CCCC2)cc1`, the logP turned out to be 3.56. In turn, `Nc1c([N+](=O)[O-])cccc1[N+](=O)[O-]` gave a logP of 1.79. For `OCCCCl`, the logP came to 0.5.

Turning to `FC(F)(F)CCc1ccccc1`, the logP came out at 3.31. Take `BrC(Br)(Br)Br`: the logP was found to be 3.42. In turn, `O=C(NCCN1CCC(O)(c2ccc(Cl)cc2)CC1)c1ccc(F)cc1` registered a logP of 2.85.

The molecule `CCCCNC(=S)N(CCCC)CCCC` came in with a logP of 3.68. Same read-out and setting: for `Nc1ccn(C2CC(CO)C(O)C2O)c(=O)n1` (configuration not stated) the value was -2.41; for `CCS(=O)(=O)c1c([N+](=O)[O-])ncn1C`, -0.37; for `N#CCC(=O)c1ccccc1`, 0.97. For `CC(C)I`, the logP came to 2.89. Turning to `CN1CCCC1`, the logP turned out to be 0.92. Same read-out and setting: to `COC1=C(N2CC2)C(=O)C(OC)=C(N2CC2)C1=O` belongs 0.17; to `C=CCOC(C)=O`, 0.97; to `CCOC(=O)CC(=O)c1ccccc1`, 1.87. In turn, `COC=O` yielded a logP of 0.03. For `C=CCCC=C`, the logP is 2.87.

As to `C[C@H](NC(=O)N(CCCl)N=O)C(=O)O`, the logP stood at 0.78.

`O=C1C(=O)c2ccccc2-c2ccccc21`: the logP was 2.52. `C1=C(c2ccccc2)CCCC1` gave a log partition coefficient (logP) of 4.53.

`CCC12CCN(C)C(Cc3ccc(O)cc31)C2C` (configuration not stated): the logP is -1.14. In turn, `O=c1c2ccccc2oc2ccccc12` gave a logP of 3.39.

For `[O-][n+]1ccccc1`, the logP is -1.2. The molecule `COCCOc1ccccc1OCCOC` yielded a logP of 1.12. The molecule `O=C(OCCCc1cnc[nH]1)c1ccccc1` returned a logP of 2.64. For the molecule `FC(F)(F)c1ccc(C(F)(F)F)cc1`, the logP stood at 3.83.

Molecule `CC(C(=O)O)c1ccc(N2C(=O)C3CCCCC3C2O)cc1` (configuration not stated) showed a logP of 2.95.

`c1ccc(Cn2cccn2)cc1` had a logP of 1.78.

`Cn1c(N)nc2cc(C#N)ccc21` returned a lipophilicity (logP) of 1.11. On to `CN(C)C(CSS(=O)(=O)c1ccccc1)CSS(=O)(=O)c1ccccc1`, for which the logP was 3.36. The same measure, in the same setting: for `CCCC(=O)OC` the value was 1.29; for `Cc1cccc(OCc2ccccc2)n1`, 3.43. In the case of `CCC1=C(N2CC2)C(=O)C(C)=C(N2CC2)C1=O`, the logP amounted to 1.35.

The molecule `ICCCI` returned a log partition coefficient (logP) of 3.02. `CC(C)(C)NC(=O)[C@H]1CC[C@H]2[C@@H]3CC[C@H]4NC(=O)C=C[C@]4(C)[C@H]3CC[C@]12C` returned a logP of 3.03. As to `Cn1c(=O)sc2ccccc21`, the logP turned out to be 1.98.

The molecule `CN(C)N=Nc1cccc2oc3ccccc3c12` had a logP of 4.55. Take `c1ccc(-c2cc3ccccc3[nH]2)nc1`: the logP is 3.33. For `CCn1cnc([N+](=O)[O-])n1`, the logP is -0.23. Regarding `CCNC(=O)C1C2C=CC(C2)C1C(=O)NCC` (configuration not stated), the logP is 0.99. Same read-out and setting: to `CC1(O)CCCCC1` belongs 1.33; to `CC(C)C(C)C`, 3.42.

With `N#Cc1ccccc1N`, the logP was found to be 1.4. The molecule `COC(=O)C(C)(C)C` yielded a logP of 1.83.

Molecule `Fc1cccc(F)n1` showed a logP of 1.17.

`O=C1C=CC(=O)C(Cl)=C1` came in with a logP of 0.84. Molecule `O=Nc1ccc(NO)cc1` displayed a log partition coefficient (logP) of 1.49.

In turn, `O=c1n[n+]([O-])ccn1[C@@H]1O[C@H](CO)[C@@H](O)[C@H]1O` gave a logP of -2.43. As for `CCCCCCCCn1cc(C)c(=O)[nH]c1=O`, the logP was determined as 3.04. On to `O=C(O)COc1ccc(N2Cc3ccccc3C2=O)cc1`, for which the logP stood at 3.58. The same measure, in the same setting: for `CC(O)Cc1ccccc1` (configuration not stated) the value was 1.97. As for `COc1ccccc1NC(=O)Nc1ccccc1OC`, the logP came out at 2.98. `O=C(N/N=C/c1ccc[nH]1)Nc1ccccc1`: the logP stood at 2.96. The molecule `CCC(C)N(C(=O)SCc1ccccc1)C(C)CC` (configuration not stated) yielded a logP of 4.4. Take `CN(C(=S)c1ccccc1)c1ccccc1`: the logP stood at 3.12. In the case of `O=C(CCn1cnc([N+](=O)[O-])n1)NCCO`, the logP is -1.32.

As for `CC(C)Cc1cc([N+](=O)[O-])cc(C(C)C)c1O`, the logP is 4.19. As for `C/C=C/C(C)=O`, the logP came to 0.52. In the case of `C=CCOCC1CO1` (configuration not stated), the logP came to 0.46. The molecule `CCC(=O)OC` showed a logP of 0.82. In the case of `NC(=O)C(Cl)Cl`, the logP was found to be 0.19. As to `O=C(O)Cc1csc(-c2ccc(Cl)cc2)n1`, the logP was determined as 3.29. Still for that read-out and setting: for `CC(=O)C(C)C` the value was 0.84; for `CN(C)c1cccnc1`, 1.41.

`CC(=O)C(C)(C)C` gave a logP of 1.2. `CCN(CC)c1c([N+](=O)[O-])cc(C(F)(F)F)c(N)c1[N+](=O)[O-]` yielded a logP of 4.3. In turn, `COc1ccc(C(C)=O)c(OC)c1OC` gave a logP of 1.63.

The molecule `N#CCC#N` had a logP of -0.5. On the same count and under the same terms, to `CC(C)(C)NCC(O)COCC=Cc1ccccc1` (configuration not stated) belongs 2.69.

Staying with this data set, now noted: pH 1.0.
`CC1CC(C(=O)O)=C(C(=O)O)C(C)C1` (configuration not stated) returned a logD of 1.53. Turning to `CC(C=CC1=C(C)CCCC1(C)C)=CC=CC(C)=CC(=O)O`, the logD came out at 6.3. Take `CCC(C)C#N` (configuration not stated): the logD came out at 1.1.

Regarding `O=C(O)c1cc2ccccc2o1`, the logD came to 2.41.

Staying with this data set, now noted: pH 4.0.
Take `O=[N+]([O-])c1cc(C(F)(F)F)cc([N+](=O)[O-])c1NN=CC(F)(F)F`: the logD amounted to 2.8. The molecule `N#Cc1ccc(NN=C(C(F)(F)F)C(F)(F)F)c([N+](=O)[O-])c1` showed a logD of 3.4.

Staying with this data set, now noted: pH 7.0.
`Nc1nc(=O)n([C@H]2CC[C@@H](CO)O2)cc1I`: the pH-dependent lipophilicity (logD) is -0.31.

`CC1(CO)COC(Cn2cncn2)(c2ccc(Cl)cc2Cl)OC1` (configuration not stated): the log distribution coefficient (logD) is 2.1. Turning to `Clc1ccc(C2(Cn3cncn3)OCC3(CCC4OC4C3)CO2)c(Cl)c1` (configuration not stated), the logD was determined as 1.87.

Turning to `CCOC(=O)N[C@H]1CCc2cc(OC)c(OC)c(OC)c2-c2ccc(OC)c(=O)cc21`, the logD amounted to 1.3.

Still in this data set, the particulars now being: pH 7.4.
On to `N#Cc1cccc2cccnc12`, for which the logD came out at 1.39. Regarding `CCCCCc1ccc(N)cc1`, the log distribution coefficient (logD) was determined as 3.39. `CCCc1ccc([N+](=O)[O-])cc1`: the logD was 3.45.

Turning to `Cc1ccc(C=Cc2ncc([N+](=O)[O-])n2C)cc1`, the log distribution coefficient (logD) came out at 1.64. In the case of `c1csc(C23CCCN2CCO3)c1` (configuration not stated), the logD was found to be 1.05.

Consider `COC(=S)NCCn1c([N+](=O)[O-])cnc1C`, for which the logD is 1.09. On the same count and under the same terms, to `Cn1cc(-c2ccccc2)c(=O)c(-c2cccc(C(F)(F)F)c2)c1` belongs 3.16; to `Cn1c([N+](=O)[O-])cnc1-c1ccc(F)cc1`, 1.83.

Molecule `Cn1c(N)nc2c3nccnc3ccc21` showed a logD of 1.01. Turning to `O=C(Cn1ccnc1[N+](=O)[O-])NCc1ccccc1`, the logD turned out to be 0.85. For `Cc1ncc([N+](=O)[O-])n1CC(O)CCl` (configuration not stated), the logD came to 0.58.

As for `Cc1ccc(C=Cc2ncc([N+](=O)[O-])n2CO)cc1`, the logD was 2.25. Same read-out and setting: to `CN(C)c1nc2c3cccnc3ccc2n1C` belongs 2.28; to `Nc1ncc(Cc2ccccc2O)c(N)n1`, 0.82; to `OC[C@H]1O[C@@H](n2cnc3c2NC=NC[C@H]3O)C[C@@H]1O`, -2.09. For `CC(C)c1ccc([N+](=O)[O-])cc1`, the logD stood at 3.45. As to `CS(=O)c1ccc2c(c1)C(c1ccccc1)=NCC(=O)N2` (configuration not stated), the logD worked out at 0.8.

The data set is the same for the next values; noted with them: pH 9.2.
As to `C=CCOC(Cn1ccnc1)c1ccc(Cl)cc1Cl` (configuration not stated), the logD worked out at 3.82.

Staying with this data set, now noted: pH 11.3.
Molecule `CC(=O)NCCCOc1cccc(CN2CCCCC2)c1` had a logD of 2.15.

The same data set, now with this note: pH 13.0.
`NCCCN` showed a logD of -1.43.

`NCCCN1CCN(CCCN)CC1` yielded a logD of -1.43.

`Nc1ncc(Cc2cccc(Cl)c2Cl)c(N)n1`: the logD came to 2.81. On to `N=C(N)c1ccc(N)cc1`, for which the logD was -0.49.

The molecule `Cc1ccc(Cc2cnc(N)nc2N)c(C)c1N` registered a logD of 1.12. For the molecule `CCN(CC)CCN`, the logD worked out at 0.21. On to `Cc1cc(C)c(N(C)C)c(C)c1`, for which the logD turned out to be 4.44. As to `CNCCO`, the logD is -0.94. In turn, `Cc1cc(Cc2cnc(N)nc2N)cc(C(C)C)c1N` came in with a logD of 1.77. In turn, `COc1c(C(C)C)cc(Cc2cnc(N)nc2N)cc1C(C)C` registered a logD of 3.47.

With `CC(=O)c1ccc(N2CCCCC2)cc1`, the logD was 3.13. The molecule `CCOC(OCC)OCC` yielded a logD of 1.2.

Values taken from the SangsterLogP compilation.
